Holding throughout (test): growth of human tumour cells (NCI), 48 h
Test [1] has as its system MCF7.
In test [2] the test system is NCI-H460.
Test [3] concerns HL-60.
Test [4] concerns KM12.
Test [5] relates to TK-10.
For test [6], the system named is SNB-19.
Test [7] deals with MOLT-4.
The test system of test [8] is HCT-15.
Test [9] has as its system HOP-92.
The subject of test [10] is SK-MEL-5.
Test [11] concerns SF-295.
For test [12], the system named is 786-0.
The test system of test [13] is HCC 2998.
For test [14], the system named is Malme-3M.
Test [15] relates to M14.
Test [16] deals with SNB-75.
Test [17] deals with LOX IMVI.
The test system of test [18] is CCRF-CEM.
Test [19] has as its system SF-539.
The subject of test [20] is NCI/ADR-RES.

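In this assay, cells in 96-well plates receive the compound at five concentrations for 48 hours. Endpoints are linearly interpolated between the surrounding concentrations. At the GI50, growth is halved.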 The source made the active and inactive calls. Cut-off read from the data, not from the text of the source: active = GI50 up to about 1.1 µM and inactive = higher. Where only a bound is given, the exact number is not on record here.

With `CC(C)[C@@H]1CC[C@@H](C)C[C@H]1OC(=O)/C=C1/C2C=CC(O2)C1C(=O)O[C@@H]1C[C@H](C)CC[C@H]1C(C)C` (stereo not given in full), the GI50 was 97.5 µM (inactive) in test [1]; 89.1 µM (inactive) in test [2]; 30.5 µM (inactive) in test [3]; > 100 µM (inactive) in [4]; > 100 µM (inactive) in test [5]; > 100 µM (inactive) in test [6]. Further, the GI50 in test [7] is 43.8 µM (inactive); in test [8], above 100 µM; in test [9], > 100 µM (inactive); in [10], > 100 µM (inactive); in test [11] it was 65.3 µM (inactive); in [12] it was > 100 µM (inactive). Further, the GI50 in [13] is 13.5 µM (inactive); in [14], > 100 µM (inactive); in test [15], > 100 µM (inactive); in test [16], > 100 µM (inactive); in test [17] it was > 100 µM (inactive); in test [18], 45.5 µM (inactive). Besides, the GI50 in test [19] and in [20] was > 100 µM (inactive) throughout.

`C=CCc1oc(C)nc1CCCC`: the GI50 in test [1] was > 100 µM (inactive); in test [2], > 100 µM (inactive); in [3], > 100 µM (inactive); in test [4] it was > 100 µM (inactive); in test [5] it was > 100 µM (inactive); in test [6], 49.3 µM (inactive). For the same compound, the GI50 is > 100 µM (inactive) in test [7]; above 100 µM in [8]; > 100 µM (inactive) in [9]; > 100 µM (inactive) in [10]; > 100 µM (inactive) in test [11]; > 100 µM (inactive) in test [12]. Also, the GI50 in [13], in test [14], in test [15], in test [16], in test [17] and in test [18] was > 100 µM (inactive) throughout. Further, the GI50 in [19] and in test [20] was > 100 µM (inactive) in each case.

With `NCCC1([N+](=O)[O-])CCNCC1`, the GI50 in [1], in test [2], in test [3], in [4], in [5] and in [6] was > 100 µM (inactive) throughout. Also, the GI50 in test [7] was > 100 µM (inactive); in [8] it was above 100 µM; in test [9], > 100 µM (inactive); in test [10], > 100 µM (inactive); in test [11], > 100 µM (inactive); in test [12] it was > 100 µM (inactive). Besides, the GI50 in test [13], in test [14], in test [15], in [16], in test [17] and in test [18] was > 100 µM (inactive) in each case. Besides, the GI50 in [19] and in [20] was > 100 µM (inactive) each time.

Source of the values: ChEMBL document CHEMBL1201862, “PubChem BioAssay data set” (2004).
